Measurements reported in patent publication US7442714B2, “Amlodipine gentisate and a method of its preparation” (SK Chemicals Co., Ltd., priority 2003, dated 2008).
Where a name gives a salt, the structure may show the parent alone.

Tests used:
wild bird = settings: oral; cited from earlier work
rat = settings: oral; cited from earlier work
Light stability (UV) = type: physicochemical
Excerpt: Table 4 represents the result of light stability of amlodipine gentisate salts of the present invention compared to that of amlodipine besylate and the total amount of UV light was 200 W·h/m^2.

[1] = Test for stability: HPLC content of active ingredient after storage at temperature and humidity; type: physicochemical
Excerpt: This experiment is designed to confirm the stability of amlodipine salt. It is essential for a drug to have sufficient stability in order to be formulated into a specific form of preparation. In particular, it is especially important to have an atmospheric stability for a drug to be formulated into tablets or capsules while aqueous stability is more important when a drug is formulated into an injection type of preparation.

[2] = test system: Rats with congenital hypertension (SHR); assay: Anti-hypertension activity, tail-cuff method; type: in vivo, rat; settings: oral
Method: Rats with congenital hypertension (SHR, male, 13-14 weeks old) were purchased from Charles River Co. (Japan). […] SHR were used those having systolic blood pressure of 170 mmHg or higher and each experimental group was composed of 8 rats. Blood pressure was measured using Multichannel 8000 (TSE Co., Germany) according to the tail-cuff method. […] […] The result of measurements was indicated in S.E.M. Statistical analysis of the measurements was performed by using Sigma Stat program (Jandel Co., USA) with respect to unpaired t-test and one-way analysis of variance (ANOVA) and the second evaluation was performed via Dunnett multiple comparisons test.

[3] = Sprague-Dawley (printed: Sprague Dowry), rat, in vivo, po, 10 mg/kg
Method: The blood samples were centrifuged for 2 min at 14,000 rpm to obtain blood plasma. 80 μL of the blood plasma was mixed with 240 μL of methanol and vortexed for 10 sec and centrifuged again for 2 min at 14,000 rpm.

[4] = UV, total amount of UV light 200 W·h/m^2

| SMILES | LD50 (wild bird) | LD50 (rat) | Content of active ingredients (Light stability (UV); [4]) | Content of active ingredients (Light stability (UV); initial) | Content of active ingredients at 40° C. with 75% humidity ([1]; 2 weeks) | Content of active ingredients at 60° C. with 75% humidity ([1]; 2 weeks) | Content of active ingredients at 40° C. with 75% humidity ([1]; 4 weeks) | Content of active ingredients at 60° C. with 75% humidity ([1]; 4 weeks) | Content of active ingredients at 40° C. with 75% humidity ([1]; 8 weeks) | Content of active ingredients at 60° C. with 75% humidity ([1]; 8 weeks) | Content of active ingredients at 40° C. with 75% humidity ([1]; initial) | Content of active ingredients at 60° C. with 75% humidity ([1]; initial) | Time after administration at which a significant decrease in blood pressure started [2] | Time after administration at which the decrease in blood pressure reached the peak [2] | Time after administration until which the anti-hypertension effect was significant [2] | Decrease in Blood Pressure (maximum anti-hypertension effect) ([2]; 2.5 mg/kg) | Decrease in Blood Pressure (maximum anti-hypertension effect) ([2]; 5.0 mg/kg) | Light stability compared to conventional amlodipine besylate salts (Light stability (UV); under UV or visible light) | Period of highest concentration in blood after administration [3] | Decrease in Blood Pressure (maximum anti-hypertension effect) ([2]; 1.25 mg/kg) |
| --- | --- | --- | --- | --- | --- | --- | --- | --- | --- | --- | --- | --- | --- | --- | --- | --- | --- | --- | --- | --- |
| O=S(=O)(O)c1ccccc1 [Benzenesulfonic acid, benzenesulfonic acid] | 75 mg/kg | 890 µL/kg | – | – | – | – | – | – | – | – | – | – | – | – | – | – | – | – | – | – |
| CCOC(=O)C1=C(COCCN)NC(C)=C(C(=O)OC)C1c1ccccc1Cl.O=S(=O)(O)c1ccccc1 (racemic) [(±)-amlodipine besylate] | – | – | 88.3% | 100% | 99.9% | 98.7% | 99.8% | 97.4% | 99.2% | 98.1% | 100% | 100% | 30 min | 1 h | 6 h | 20.8±7.3% | 28.6±7.5% | – | – | – |
| CCOC(=O)C1=C(COCCN)NC(C)=C(C(=O)OC)[C@@H]1c1ccccc1Cl [S-(−)-amlodipine gentisate, (S)-(−)-Amlodipine Gentisate Salt] | – | – | 100.7% | 100% | 102.9% | 100.1% | 103.5% | 103.0% | 102.3% | 99.9% | 100% | 100% | 30 min | 1 h | 6 h | 24.5±7.9% | – | superior light stability | 4 to 6 h | 19.8±5.5% |
| CCOC(=O)C1=C(COCCN)NC(C)=C(C(=O)OC)[C@@H]1c1ccccc1Cl.O=S(=O)(O)c1ccccc1 [S-(−)-amlodipine besylate] | – | – | 90.1% | 100% | 101.1% | 100.1% | 101.7% | 98.5% | 101.6% | 96.3% | 100% | 100% | – | – | – | – | – | – | – | – |
